# Patent US9260500B2, “Peptide and use thereof” (Takeda Pharmaceutical Company Limited, priority 2009, dated 2016)
# Non-standard residues stand in square brackets, D forms with d. *: point of attachment. X6 = ((1S)-1-carboxy-2-hydroxyethyl)carbamoyl, O=C(O)[C@H](CO)NC(=O)*; ((1S)-1-Carboxyethyl)carbamoyl = C[C@H](NC(=O)*)C(=O)O; 4Pal = N[C@@H](Cc1ccncc1)C(=O)O; Cha = N[C@@H](CC1CCCCC1)C(=O)O; Aib = CC(C)(N)C(=O)O
# How the values were obtained:
# male C57BL/6J mouse = test: 3-Day Continuous Subcutaneous Administration Test-2 (food intake suppressing activity); type: in vivo; conditions: 0.03 mg/kg/day, subcutaneous Alzet pump, food consumption as of 2 days after start; versus solvent (50% DMSO) control group
# Experimental: (5) Test Method: 3-Day Continuous Subcutaneous Administration Test-2
# The food intake suppressing activity of the compound of the present invention was examined by the following method.
# The test compound was dissolved in a solvent (50% DMSO) so that sustained release would occur at 0.03 mg/kg/day, and the solution was filled in the Alzet Pump (DURECT Corporation, model: 1003D). After the filling, the pump was immersed in physiological saline for priming, and then used. The pump was embedded by the following method. Each male C57BL/6J mouse at 9-10 weeks of age (25° C., allowed to take food and water ad libitum; 12-hour bright-12-hour dark cycle) was anesthetized; the skin in the upper back thereof was incised, and the above-mentioned pump was embedded subcutaneously; the incision was sutured. After weighing, this mouse was returned to the rearing cage (reared alone), and given previously weighed food; food consumption as of 2 days after the start of administration was measured. The food consumption was calculated by subtracting the amount of remaining food from the weight of the food given on the day of the start of administration. From the food consumption obtained, the food intake suppression rate (%) of each test compound was calculated using the following the formula.
# A group receiving administration of the aforementioned solvent alone was the control group.
# Food intake suppression rate (%): (Food consumption for control group−food consumption for test compound administration group)/food consumption for control group×100
# male C57EL/6J mice = test: 3-Days Continuous Subcutaneous Administration Test-1 (food intake suppressing activity); type: in vivo, mouse; conditions: 0.03 mg/kg/day, subcutaneous Alzet pump, food consumption over 3 days; relative to food intake suppression rate for PYY(3-36) (1 mg/kg/day) taken as 100%
# Procedure, shortened: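 Male […] mice, 12-13 weeks, received compound at 0.03 mg/kg/day by subcutaneous osmotic pump (50% DMSO vehicle), housed singly with free food access. Food consumed over 3 days measured; suppression expressed relative to PYY(3-36) (1 mg/kg/day) set as 100%.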
# human Y2 receptor [1] = biological target: T1, human Y2 receptor (Homo sapiens, UniProt P49146); test: Receptor Binding Assay (RBA) for Human Y2, [125I]-PYY displacement on hY2R/CHO membrane fraction; conditions: IC50 of test compound/IC50 of PYY(3-36) (PYY(3-36) taken as 1)
# T1 construct: expressed in transfected cells; membrane fraction
# T1 sequence (P49146 1-381): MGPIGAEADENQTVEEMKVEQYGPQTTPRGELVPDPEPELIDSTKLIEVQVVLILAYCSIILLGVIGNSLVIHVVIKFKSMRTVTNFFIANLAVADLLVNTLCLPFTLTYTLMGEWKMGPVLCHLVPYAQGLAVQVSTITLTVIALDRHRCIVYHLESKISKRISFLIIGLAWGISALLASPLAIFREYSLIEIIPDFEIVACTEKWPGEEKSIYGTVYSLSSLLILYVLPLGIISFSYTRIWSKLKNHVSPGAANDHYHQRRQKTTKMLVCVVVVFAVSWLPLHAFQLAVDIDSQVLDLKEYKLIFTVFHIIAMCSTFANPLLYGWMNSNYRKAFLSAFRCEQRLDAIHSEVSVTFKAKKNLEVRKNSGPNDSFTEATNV
# Procedure, shortened: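 hY2R stably expressed in CHO/dhfr− cells; membrane fraction prepared from cells disrupted in 10 mM NaHCO3, 5 mM EDTA buffer with protease inhibitors. Binding read as displacement of [125I]-PYY.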
# human Y2 receptor [2] = biological target: T1, human Y2 receptor; test: Human Y2 Receptor G Protein Binding Assay (GBA), [35S]GTPγS; type: biochemical; conditions: EC50 of test compound/EC50 of PYY(3-36) (PYY3-36 taken as 1), hY2R/CHO membrane fraction
# Procedure, shortened: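 Agonism measured as [35S]GTPγS binding, read by GF/C filtration and scintillation counting after 120 min at room temperature, using human Y2 membranes at 1 μg protein/mL in pH 7.4 Tris/MgCl2/NaCl/GDP buffer. Compound serially diluted 100 μM–1 nM; EC50 normalized to PYY(3-36) (ratio = compound/PYY).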
Substance,food intake suppression rate (%) (male C57BL/6J mouse),other results
"4-Imidazolecarbonyl-[Aib24,31, Iva25, Pya(4)26, Cha27,36, Leu(Me)28, Lys(Ac)30]-PYY(23-36) [compound No. 368]",34.9,
"4-Imidazolecarbonyl-[D-Hyp24, Iva25, Pya(4)26, Cha27,36, Iva28, Lys30, D-Iva31]-PYY(23-36) [compound No. 372]",27.2,
"4-Imidazolecarbonyl-[D-Hyp24, Iva25, Pya(4)26, Cha27,36, Leu(Me)28, Har30, Aib31]-PYY(23-36) [compound No. 367]",24.0,
"4-Imidazolecarbonyl-[D-Hyp24, Iva25, Pya(4)26, Cha27,36, Leu(Me)28, Lys(Ac)30, Aib31]-PYY(23-36) [compound No. 362]",54.2,
"4-Imidazolecarbonyl-[D-Hyp24, Iva25, Pya(4)26, Cha27,36, Leu(Me)28, Lys(Ac)30, D-Iva31]-PYY(23-36) [compound No. 369]",47.8,
"4-Imidazolecarbonyl-[D-Hyp24, Iva25, Pya(4)26, Cha27, Leu(Me)28, Lys30, Aib31, Phe(2,6-Me2)36]-PYY(23-36) [compound No. 360]",36.7,
"4-Imidazolecarbonyl-[D-Hyp24, Pya(4)26, Cha27,36, Iva28, Lys(Ac)30, D-Iva31]-PYY(23-36) [compound No. 374]",22.6,
"4-Imidazolecarbonyl-[D-Hyp24, Pya(4)26, Cha27,36, Leu(Me)28, Lys30, Aib31]-PYY(23-36) [compound No. 370]",17.9,
"4-Imidazolecarbonyl-[D-Pro24, Iva25, Pya(4)26, Cha27,36, Leu(Me)28, Lys(Ac)30, Aib31]-PYY(23-36) [compound No. 365]",37.8,
"4-Imidazolecarbonyl-[D-Pro24, Pya(4)26, Cha27,36, Iva28, Lys30, Aib31]-PYY(23-36) [compound No. 366]",32.9,
"[(1S)-1-Carboxyethyl]carbamoyl-[D-Pro24, Pya(4)26, Cha27,36, Aib28,31, Lys30]-PYY(23-36) ({((1S)-1-Carboxyethyl)carbamoyl}-S[dP]R[4Pal][Cha][Aib]NK[Aib]TRQR[Cha]-NH2; SMILES C[C@H](NC(=O)N[C@@H](CO)C(=O)N1CCC[C@@H]1C(=O)N[C@@H](CCCNC(=N)N)C(=O)N[C@@H](Cc1ccncc1)C(=O)N[C@@H](CC1CCCCC1)C(=O)NC(C)(C)C(=O)N[C@@H](CC(N)=O)C(=O)N[C@@H](CCCCN)C(=O)NC(C)(C)C(=O)N[C@H](C(=O)N[C@@H](CCCNC(=N)N)C(=O)N[C@@H](CCC(N)=O)C(=O)N[C@@H](CCCNC(=N)N)C(=O)N[C@@H](CC1CCCCC1)C(N)=O)[C@@H](C)O)C(=O)O) [compound No. 286]",,food intake suppression rate (%) (male C57EL/6J mice): 37%; RBA IC50 Ratio (human Y2 receptor [1]): 0.78; GBA EC50 Ratio (human Y2 receptor [2]): 0.94
"[(1S)-1-carboxy-2-hydroxyethyl]carbamoyl-[D-Pro24, Pya(4)26, Cha27,36, Aib28,31, Lys30]-PYY(23-36) (X6-S[dP]R[4Pal][Cha][Aib]NK[Aib]TRQR[Cha]-NH2; SMILES C[C@@H](O)[C@H](NC(=O)C(C)(C)NC(=O)[C@H](CCCCN)NC(=O)[C@H](CC(N)=O)NC(=O)C(C)(C)NC(=O)[C@H](CC1CCCCC1)NC(=O)[C@H](Cc1ccncc1)NC(=O)[C@H](CCCNC(=N)N)NC(=O)[C@H]1CCCN1C(=O)[C@H](CO)NC(=O)N[C@@H](CO)C(=O)O)C(=O)N[C@@H](CCCNC(=N)N)C(=O)N[C@@H](CCC(N)=O)C(=O)N[C@@H](CCCNC(=N)N)C(=O)N[C@@H](CC1CCCCC1)C(N)=O) [compound No. 288]",,food intake suppression rate (%) (male C57EL/6J mice): 28%; RBA IC50 Ratio (human Y2 receptor [1]): 0.52; GBA EC50 Ratio (human Y2 receptor [2]): 1.3
